Measured values as given in patent US12371454B2, “Cyclic peptide compound having Kras inhibitory action” (priority 2019, dated 2025).
Starred links: 1 amine or outer side, 2 acyl side, 3 side chain; linkers in the order of their positions; H or OH if unused. Positions of bridges follow the written chain, without caps; N, C: chain ends. Non-standard residues stand in square brackets, D forms with d. Residues, ends and D or L forms follow the SMILES beside them. *: point of attachment. hPhe(3,5-F2-4-CF3) = N[C@@H](CCc1cc(F)c(C(F)(F)F)c(F)c1)C(=O)O; hPhe(3-Cl-4-CF3) = N[C@@H](CCc1ccc(C(F)(F)F)c(Cl)c1)C(=O)O; NMePhe(4-CF3) = CN[C@@H](Cc1ccc(C(F)(F)F)cc1)C(=O)O; Thiomorpholino(1,1-dioxo) = O=S1(=O)CCN(*)CC1; 3Oxa8azabicyclo(3.2.1)octane = C1CC2COCC1N2*; NMeAbu(4,4,4-F3) = CN[C@@H](CC(F)(F)F)C(=O)O; X41 = O=C([C@H](Cc1cccc(I)c1F)N[*:1])[*:2]; X53 = O=C([C@H](Cc1cccc(F)c1F)N[*:1])[*:2]; X56 = O=C([C@H](Cc1cc(F)ccc1F)N[*:1])[*:2]; NMeGly(cPent) = CN[C@H](C(=O)O)C1CCCC1; Phe(3-I) = N[C@@H](Cc1cccc(I)c1)C(=O)O; Pro(4,4-F2) = O=C(O)[C@@H]1CC(F)(F)CN1; NMeY = CN[C@@H](Cc1ccc(O)cc1)C(=O)O; NMeCha = CN[C@@H](CC1CCCCC1)C(=O)O; Hyp = O=C(O)[C@@H]1C[C@@H](O)CN1; NMeChg = CN[C@H](C(=O)O)C1CCCCC1; NMeI = CC[C@H](C)[C@H](NC)C(=O)O; NMeD = CN[C@@H](CC(=O)O)C(=O)O; NMeL = CN[C@@H](CC(C)C)C(=O)O; NMeAbu = CC[C@H](NC)C(=O)O; Morpholide = C1CN(*)CCO1; NMeA = CN[C@@H](C)C(=O)O; NMeAib = CNC(C)(C)C(=O)O; Nle = CCCC[C@H](N)C(=O)O; Piperidide = C1CCN(*)CC1; Pra = C#CC[C@H](N)C(=O)O; Pyrrolidide = C1CCN(*)C1; Ac5c = NC1(C(=O)O)CCCC1; Aze = O=C(O)[C@@H]1CCN1; Sar = CNCC(=O)O

Biological target: T1, Kras and SOS1 (biotin-tagged human Kras loaded with GDP, His-tagged human SOS1) (Homo sapiens, UniProt P01116, G12D)
T1 construct: made in house; host or cells: E. coli (stated for Kras only)
Test: Protein-protein interaction inhibition between Kras and SOS1 (KrasGl2D-SOS PPI) using AlphaScreen
Assay type: binding
Conditions: AlphaScreen; biotin-tagged human Kras loaded with GDP, His-tagged human SOS1; read-out: KRAS G12D-SOS PPI IC50
Procedure, shortened: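 AlphaScreen format: Ni donor beads capture His-SOS1, streptavidin acceptor beads capture biotinylated Kras (E. coli-expressed, GDP-loaded post-purification). Excite 680 nm, read 520-620 nm.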

T1 sequence (P01116 1-188 isoform P01116-2 G12D): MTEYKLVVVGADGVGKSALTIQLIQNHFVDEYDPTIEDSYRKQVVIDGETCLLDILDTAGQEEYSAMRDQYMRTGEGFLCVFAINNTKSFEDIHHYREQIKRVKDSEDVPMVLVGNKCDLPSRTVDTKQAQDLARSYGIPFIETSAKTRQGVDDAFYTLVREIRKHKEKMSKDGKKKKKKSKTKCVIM

In the case of CCCC[C@@H]1NC(=O)[C@H](Cc2cccc(I)c2F)NC(=O)CN(C)C(=O)[C@H](Cc2ccc(OC)cc2)N(C)C(=O)[C@@H]2CCN2C(=O)[C@H](C)N(C)C(=O)[C@H]([C@@H](C)CC)NC(=O)[C@H](CC)N(C)C(=O)C[C@@H](C(=O)N2CCCCC2)N(C)C(=O)[C@H](CC(C)C)NC(=O)C(C)(C)N(C)C1=O [Compound 1249] ([NMeAbu]I[NMeA][Aze][NMeY](Me)[Sar][X41][Nle][NMeAib]L[NMeD]-Piperidide; lactam N-11), the IC50 is reported as 33 nM.
For CCCC[C@@H]1NC(=O)[C@H](Cc2cccc(F)c2F)NC(=O)CN(C)C(=O)[C@H](Cc2ccc(OC)cc2)N(C)C(=O)[C@@H]2CCN2C(=O)[C@H](C)N(C)C(=O)[C@H]([C@@H](C)CC)NC(=O)[C@H](CC)N(C)C(=O)C[C@@H](C(=O)N2CCCCC2)N(C)C(=O)[C@H](CC(C)C)NC(=O)C(C)(C)N(C)C1=O [Compound 1256] ([NMeAbu]I[NMeA][Aze][NMeY](Me)[Sar][X53][Nle][NMeAib]L[NMeD]-Piperidide; lactam N-11), the IC50 was 9.1 nM.
With CC[C@H](C)[C@@H]1NC(=O)[C@H](CC(C)C)N(C)C(=O)C[C@@H](C(=O)N2C3CCC2COC3)NC(=O)[C@H]([C@@H](C)CC)N(C)C(=O)C2(CCCC2)NC(=O)[C@@H]2CCCN2C(=O)[C@H](CCc2ccc(C(F)(F)F)c(Cl)c2)NC(=O)CN(C)C(=O)[C@H](CC2CCCCC2)N(C)C(=O)CN(C)C(=O)CN(C)C1=O [Compound 1257] ([NMeL]I[Sar][Sar][NMeCha][Sar][hPhe(3-Cl-4-CF3)]P[Ac5c][NMeI]D-{3Oxa8azabicyclo(3.2.1)octane}; lactam N-11) the IC50 was 6.5 nM.
C#CC[C@@H]1NC(=O)[C@H](Cc2cccc(I)c2)NC(=O)CN(C)C(=O)[C@H](Cc2ccc(C(F)(F)F)cc2)N(C)C(=O)[C@@H]2CCN2C(=O)[C@H](C)N(C)C(=O)[C@H]([C@@H](C)CC)NC(=O)[C@H](CC(C)C)N(C)C(=O)C[C@@H](C(=O)N2CCCCC2)N(C)C(=O)[C@H](CC(C)C)NC(=O)C(C)(C)N(C)C1=O [Compound 1258] ([NMeL]I[NMeA][Aze][NMePhe(4-CF3)][Sar][Phe(3-I)][Pra][NMeAib]L[NMeD]-Piperidide; lactam N-11) was tested, and the IC50 was 26 nM.
CC[C@H](C)[C@@H]1NC(=O)[C@H](CC(F)(F)F)N(C)C(=O)C[C@@H](C(=O)N2CCOCC2)N(C)C(=O)[C@H](C2CCCCC2)N(C)C(=O)C2(CCCC2)NC(=O)[C@@H]2CC(F)(F)CN2C(=O)[C@H](CCc2cc(F)c(C(F)(F)F)c(F)c2)NC(=O)CN(C)C(=O)[C@H](Cc2ccc(C(F)(F)F)cc2)N(C)C(=O)CN(C)C(=O)CN(C)C1=O [Compound 1260] ([NMeAbu(4,4,4-F3)]I[Sar][Sar][NMePhe(4-CF3)][Sar][hPhe(3,5-F2-4-CF3)][Pro(4,4-F2)][Ac5c][NMeChg][NMeD]-Morpholide; lactam N-11) gave an IC50 of 0.54 nM.
Work on CCO[C@@H]1C[C@H]2C(=O)NC3(CCCC3)C(=O)N(C)[C@@H]([C@@H](C)CC)C(=O)N(C)[C@H](C(=O)N3CCOCC3)CC(=O)N(C)[C@@H](CC(C)C)C(=O)N[C@@H]([C@@H](C)CC)C(=O)N(C)[C@@H](C)C(=O)N3CC[C@H]3C(=O)N(C)[C@@H](Cc3ccc(C(F)(F)F)cc3)C(=O)N(C)CC(=O)N[C@@H](CCc3cc(F)c(C(F)(F)F)c(F)c3)C(=O)N2C1 [Compound 1261] ([NMeL]I[NMeA][Aze][NMePhe(4-CF3)][Sar][hPhe(3,5-F2-4-CF3)][Hyp](Et)[Ac5c][NMeI][NMeD]-Morpholide; lactam N-11) yielded an IC50 of 0.65 nM.
With CC[C@H](C)[C@@H]1NC(=O)[C@H](CC(C)C)N(C)C(=O)C[C@@H](C(=O)N2CCS(=O)(=O)CC2)N(C)C(=O)[C@H](C2CCCCC2)N(C)C(=O)C2(CCCC2)NC(=O)[C@@H]2CCCN2C(=O)[C@H](CCc2ccc(C(F)(F)F)c(Cl)c2)NC(=O)CN(C)C(=O)[C@H](CC2CCCCC2)N(C)C(=O)CN(C)C(=O)CN(C)C1=O [Compound 1263] ([NMeL]I[Sar][Sar][NMeCha][Sar][hPhe(3-Cl-4-CF3)]P[Ac5c][NMeChg][NMeD]-{Thiomorpholino(1,1-dioxo)}; lactam N-11) the IC50 was 2.7 nM.
For CCCC[C@@H]1NC(=O)[C@H](Cc2cc(F)ccc2F)NC(=O)CN(C)C(=O)[C@H](Cc2ccc(OC)cc2)N(C)C(=O)[C@@H]2CCN2C(=O)[C@H](C)N(C)C(=O)[C@H]([C@@H](C)CC)NC(=O)[C@H](CC)N(C)C(=O)C[C@@H](C(=O)N2CCCCC2)N(C)C(=O)[C@H](CC(C)C)NC(=O)C(C)(C)N(C)C1=O [Compound 1268] ([NMeAbu]I[NMeA][Aze][NMeY](Me)[Sar][X56][Nle][NMeAib]L[NMeD]-Piperidide; lactam N-11), the IC50 was 19 nM.
In the case of CC[C@H](C)[C@@H]1NC(=O)[C@H](CC(C)C)N(C)C(=O)C[C@@H](C(=O)N2CCCC2)N(C)C(=O)[C@H](C2CCCC2)N(C)C(=O)C2(CCCC2)NC(=O)[C@@H]2CC(F)(F)CN2C(=O)[C@H](CCc2ccc(C(F)(F)F)c(Cl)c2)NC(=O)CN(C)C(=O)[C@H](CC2CCCCC2)N(C)C(=O)CN(C)C(=O)CN(C)C1=O [Compound 1270] ([NMeL]I[Sar][Sar][NMeCha][Sar][hPhe(3-Cl-4-CF3)][Pro(4,4-F2)][Ac5c][NMeGly(cPent)][NMeD]-Pyrrolidide; lactam N-11), the IC50 is reported as 0.61 nM.
